Earlier results in patent US11285134B2, “Presbyopia treatments” (Allergan, Inc., priority 2018, dated 2022).
Where two headings read alike, the source gives them in different places.

System: patients with glaucoma
Conditions: 1-week treatment

## CC[C@@H]1C(=O)OC[C@@H]1Cc1cncn1C [pilocarpine]
1% dose strength
  mean percent fall in IOP from baseline: 17.5%
4% dose strength
  mean percent fall in IOP from baseline: 26.8%
8% dose strength
  mean percent fall in IOP from baseline: 29.1%
